Data from US20240285571A1, “METHODS OF TREATING BONE INFECTIONS” (MICROBION CORPORATION, priority 2020, published 2024).

Key:
E. coli [1] = assay: Broth microdilution MIC (Example 5); type: cell-based, Escherichia coli
Experimental: (§1) Test and Comparator Agents: The test agents were stored at room temperature until assayed. […] The stock solutions were allowed to stand for at least 1 hr prior to use to auto-sterilize.
(§2) TestMedia: Test media were prepared and stored in accordance with guidelines from CLSI (4, 6, 7).
(§3) Broth Microdilution MC Testing (Aerobic Bacteria and Yeast): The broth microdilution assay method employed for the susceptibility testing of aerobic bacteria (excluding N. gonorrhoeae which was evaluated by agar dilution) and yeast essentially followed the procedures described by CLSI (3, 4, 7, 8) and employed automated liquid handlers to conduct serial dilutions and liquid transfers. […] These would become the ‘mother plates’ from which ‘daughter’ or test plates would be prepared. The drugs (300 μL at 40× the desired top concentration in the test plates) were dispensed into the appropriate well in Column 1 of the mother plates. The Biomek 2000 was used to make serial two-fold dilutions through Column 11 in the “mother plate”. The wells of Column 12 contained no drug and ultimately served as the organism growth control wells.
(§4) The daughter plates were prepared using the Biomek FX which transferred 5 μL of drug solution from each well of a mother plate to the corresponding well of the correct daughter plate in a single step.
(§5) A standardized inoculum of each organism was prepared per CLSI methods (3, 7). Isolated colonies of each test isolate were picked from the primary plate and a suspension was prepared to equal a 0.5 McFarland turbidity standard. Standardized suspensions were then diluted […] (1:100 for yeast, 1:20 for bacteria). After dilution, the inoculum suspensions were then transferred to compartments of sterile reservoirs divided by length (Beckman Coulter), and the Biomek 2000 was used to inoculate all plates. Daughter plates were placed on the Biomek 2000 in reverse orientation so that plates were inoculated from low to high drug concentration.
(§6) The Biomek 2000 delivered 10 μL of standardized inoculum into each well of the appropriate daughter plate for an additional 1:20 dilution.
(§7) Plates were stacked 4 high, covered with a lid on the top plate, placed into plastic bags, and incubated at 35° C. for approximately 24-48 hr for all yeast isolates and 16-24 hr for aerobic bacteria. Plates were viewed from the bottom using a plate viewer. […] MIC endpoints for the test agents and control compounds were read per CLSI criteria (3, 7).

K. pneumoniae = assay: Broth microdilution MIC (Example 5); type: cell-based, Klebsiella pneumoniae
Experimental: as §1, §2, §3, §4, §5, §6, §7

E. cloacae = assay: Broth microdilution MIC (Example 5); type: cell-based, Enterobacter cloacae; conditions: E. cloacae MMX 5981 (ATCC BAA-2468); NDM-1
Experimental: as §1, §2
Broth Microdilution MC Testing (Aerobic Bacteria and Yeast): The broth microdilution assay method employed for the susceptibility testing of aerobic bacteria (excluding N. gonorrhoeae which was evaluated by agar dilution) and yeast essentially followed the procedures described by CLSI (3, 4, 7, 8) and employed automated liquid handlers to conduct serial dilutions and liquid transfers. […] These would become the ‘mother plates’ from which ‘daughter’ or test plates would be prepared. The drugs (300 μL at 40× the desired top concentration in the test plates) were dispensed into the appropriate well in Column 1 of the mother plates. The Biomek 2000 was used to make serial two-fold dilutions through Column 11 in the “mother plate”. […]
Plates were stacked 4 high, covered with a lid on the top plate, placed into plastic bags, and incubated at 35° C. for approximately 24-48 hr for all yeast isolates and 16-24 hr for aerobic bacteria. […] MIC endpoints for the test agents and control compounds were read per CLSI criteria (3, 7).

P. aeruginosa [2] = assay: Broth microdilution MIC (Example 5); type: cell-based, Pseudomonas aeruginosa
Experimental: as §1, §2, §3, §4, §5, §6, §7

A. baumannii = assay: Broth microdilution MIC (Example 5); type: cell-based, Acinetobacter baumannii
Experimental: as §1, §2, §3, §4, §5, §6, §7

S. aureus = assay: Broth microdilution MIC (Example 5); type: cell-based, Staphylococcus aureus
Experimental: as §1, §2, §3, §4, §5, §6, §7

E. faecalis = assay: Broth microdilution MIC (Example 5); type: cell-based, Enterococcus faecalis; conditions: VRE
Experimental: as §1, §2, §3, §4, §5, §6, §7

E. faecium = assay: Broth microdilution MIC (Example 5); type: cell-based; conditions: VRE vanA
Experimental: as §1, §2, §3, §4, §5, §6, §7

E. coli [3] = conditions: E. coli MMX 102 (ATCC 25922); cited from earlier work
P. aeruginosa [4] = conditions: P. aeruginosa MMX 103 (ATCC 27853); cited from earlier work

Gentamicin [reference compound]
MIC (E. coli [1]; E. coli MMX 102 (ATCC 25922), QC): 1 µg/mL | MIC (E. coli [1]; E. coli MMX 5980 (ATCC BAA-2469), NDM-1): >64 µg/mL | MIC (E. coli [1]; E. coli MMX 8423, ESBL, LevR CAZR GmR): 64 µg/mL | MIC (E. coli [1]; E. coli MMX 8424, ESBL, CAZR): 0.25 µg/mL | MIC (E. coli [1]; E. coli MMX 8425, ESBL, LevR CAZR GmR): >64 µg/mL | MIC (K. pneumoniae; K. pneumoniae MMX 4622, KPC-2): 0.25 µg/mL | MIC (K. pneumoniae; K. pneumoniae MMX 4623, KPC-2): 64 µg/mL | MIC (K. pneumoniae; K. pneumoniae MMX 4653, KPC-3): 1 µg/mL | MIC (K. pneumoniae; K. pneumoniae MMX 4683, KPC-2): 1 µg/mL | MIC (K. pneumoniae; K. pneumoniae MMX 4684, ESBL): 0.25 µg/mL | MIC (K. pneumoniae; K. pneumoniae MMX 4685, ESBL): 1 µg/mL | MIC (K. pneumoniae; K. pneumoniae MMX 4694, KPC-3): 8 µg/mL | MIC (K. pneumoniae; K. pneumoniae MMX 5979, NDM-1): >64 µg/mL | MIC (E. cloacae): >64 µg/mL | MIC (P. aeruginosa [2]; P. aeruginosa MMX 103 (ATCC 27853), QC): 1 µg/mL | MIC (P. aeruginosa [2]; P. aeruginosa MMX 1381, MDR): 8 µg/mL | MIC (P. aeruginosa [2]; P. aeruginosa MMX 2562, MDR): 8 µg/mL | MIC (P. aeruginosa [2]; P. aeruginosa MMX 3991, MDR): 4 µg/mL | MIC (P. aeruginosa [2]; P. aeruginosa MMX 4654, IMP-7): >64 µg/mL | MIC (P. aeruginosa [2]; P. aeruginosa MMX 4697, VIM-2): 4 µg/mL | MIC (A. baumannii; A. baumannii MMX 2592, MDR): >64 µg/mL | MIC (A. baumannii; A. baumannii MMX 2593, MDR): >64 µg/mL | MIC (A. baumannii; A. baumannii MMX 3372, MDR): 0.5 µg/mL | MIC (A. baumannii; A. baumannii MMX 3373, Sensitive): 0.12 µg/mL | MIC (A. baumannii; A. baumannii MMX 4651 (NCTC 13304), MDR, OXA-27): 8 µg/mL | MIC (S. aureus; S. aureus MMX 101 (ATCC 29213), QC, MSSA): 0.12 µg/mL | MIC (S. aureus; S. aureus MMX 5373, MRSA): 0.25 µg/mL | MIC (S. aureus; S. aureus MMX 6311, MRSA): 0.25 µg/mL | MIC (S. aureus; S. aureus MMX 9203, MRSA): 0.12 µg/mL | MIC (S. aureus; S. aureus MMX 9204, MRSA): 0.25 µg/mL | MIC (S. aureus; S. aureus MMX 9205, MRSA): 0.25 µg/mL | MIC (E. faecalis; E. faecalis MMX 8960): >64 µg/mL | MIC (E. faecalis; E. faecalis MMX 8961): 8 µg/mL | MIC (E. faecalis; E. faecalis MMX 8962): >64 µg/mL | MIC (E. faecium; E. faecium MMX 485): >64 µg/mL | MIC (E. faecium; E. faecium MMX 752): >64 µg/mL | CLSI QC range of MIC (E. coli [3]): (0.25-1) μg/mL | CLSI QC range of MIC (P. aeruginosa [4]): (0.5-2) μg/mL
